Assay results from patent US20160090351A1, “INHIBITORS OF DEUBIQUITINATING PROTEASES” (BRANDEIS UNIVERSITY, priority 2013, published 2016).

Experiments:
[1] = molecular target: T1, USP9x (Homo sapiens, UniProt Q93008); assay: HA-Ub-VS labeling in K562 cell lysates; type: biochemical
T1 construct: endogenous in cells; host or cells: K562 cell lysate
Protocol: HA-Ub-VS is commonly used to label DUBs in cell lysates. […] A. and B. K562 cell lysates were treated with compound for 40 minutes prior to activity labeling with HA-Ub-VS (1.5 μM) for 20 minutes. Samples were analyzed by SDS-PAGE and immunoblotting with anti-HA antibody. C. […] Values were derived by fitting to the in Prism.

[2] = test system: BaF3.p210; assay: cytotoxicity in a panel of cell lines, Alamar Blue; type: cell-based, mouse
Protocol: Cytoxicity was tested against a panel of cell lines: (i) B16/F10, a metastatic mouse melanoma cell line that suppresses the tumor suppressor Gas1 (Growth arrest-specific 1); (ii) BaF3, an immortalized mouse pro-B cell line that depends on IL-3 for growth and proliferation (L-3 stimulates expression of the pro-survival Bc1-2 family member, Mc1-1; and USP9x is the deubiquitinase responsible for stabilizing Mc1-1); (iii) Cos-1, monkey kidney fibroblast immortalized with SV40 T antigen; (iv) BaF3.p210, BaF3 cells expressing Bcr-Abl kinase (p210), the mutant protein that causes chronic myelogenous leukemia, and the target of Gleevec (The expression of Bcr-Abl cause proliferation to become IL-3-independent. These cells have been widely used in the development of Bcr-Abl kinase inhibitors. USP9x stabilizes Bcr-Abl by removing Ub and blocking degradation via autophagy.); (v) HEK293T, human embryonic kidney cell line expressing SV40 T antigen; (vi) HeLa, human cervical adenocarcinoma cell line; (vii) MCF7, human breast cancer cell line; and (viii) NIH3T3, mouse fibroblast cell line. Of these, the only cells dependent on USP9x for survival are BaF3.p210 and BaF3. A. Cells were treated with a single dose of TU50 for 48 h and viable cells were measured using Alamar Blue®. EC50=8±2 μM for BaF3.p210. B. As above, except that cells were treated with TU50 for 72 h.

[3] = test system: K562 cells; assay: apoptosis, cell cycle and viability of K562 cells by flow cytometry; type: cell-based, human; conditions: annexin V-FITC / propidium iodide, 24 hours (TU50 also 8 hours)
Protocol: (§1) K562 cells are from a myelogenous leukemia line that expresses Bcr-Abl kinase. A. K562 cells were treated with TU50 for 24 hours after which time the cells were treated with annexin V-FITC and propidium iodide. Cells were then analyzed by flow cytometry. Cells showing only annexin V-FITC were considered apoptotic whereas cells showing both annexin V-FITC and propidium iodide were considered necrotic. N=2. All points show a significant difference to the vehicle (DMSO) with p<0.05. […] All points show a significant difference to vehicle (DMSO) with p<0.02. C. Same as A, but the incubation period was 8 hours. N>2. All points show a significant difference to DMSO with p<0.02. D, K562 cells were treated with TU50 for 4 hours. Samples were analyzed by SDS-PAGE and immunoblotting with anti-Bcr-Abl antibody. E. Quantitation of blot in D. The signal for tubulin was used to normalize the Bcr-Abl signal. N=3.
(§2) FIG. 40 depicts data showing that diphenyl carbonates induce the degradation of Bcr-Abl kinase. A. K562 cells were treated with C17 for 24 h (1 dose) then analyzed for Bcr-Abl expression by western blot with anti-Abl antibody. B. Quantitation of blots in A normalized to actin. C. K562 cells were treated with C17 for 24 h then the amount of cells in G1 and apoptosis were recorded (N=3). D. K562 were treated with C15 for 4 h then analyzed for Bcr-Abl expression using western blot. E. Quantitation of Bcr-Abl from D normalized to tubulin (N=4). F. Same K562 lysates were separately analyzed for K63-linked ubiquitin. G. Quantitation of blots in F (N=4). Differences between all bars is significant p<0.01). H. K562 cells were treated with C15 for 24 h after which time cells were fixed in ethanol, treated with propodium iodide/RNAse then analyzed by FACS. Viability was calculated using forward and side scatter. I. Same experiment as H but red fluorescence was measured to determine DNA content

[4] = molecular target: 20S proteasome (Homo sapiens, UniProt P28074); assay: proteasome activity (purified 20S proteasome; GFP-Ub (G76V) in Cos-1 cells); type: biochemical; conditions: 20S proteasome 30 minutes, Suc-Leu-Tyr-AMC 100 μM; Cos-1 GFP-Ub (G76V) 8 hours
Protocol: A. Purified 20S proteasome was treated with compound for 30 minutes prior to addition of substrate (Suc-Leu-Tyr-AMC, 100 μM). B. Cos-1 cells expressing with GFP-Ub (G76V) were treated with compound for 8 hours, then the level of GFP was measured by flow cytometry.

[5] = test system: Bcr-Abl kinase; assay: Bcr-Abl levels in K562 cells by immunoblotting; type: cell-based, human
Protocol: as §1
(§3) FIG. 34 depicts data showing that diphenylcarbonates cause the accumulation of HMW-Ub and reduce the levels of Bcr-Abl in K562 cells. A. K562 cells were treated with diphenyl carbonates (50 μM) for 2 h and then assayed for the accumulation of K48-linked Ub. B. As in A, but Bcr-Abl was measured by immunoblotting with anti-Abl antibodies. C. K562 cells were treated with C17 (50 μM) in the presence and absence of bortezomib (6 μM) for 4 hours and Bcr-Abl was measured by immunblotting with anti-Abl antibodies. D. Quantitation of blot in C. Significance: DMSO relative to C17 and bortezomib p=0.002; DMSO relative to C17, p=0.03. E. K562 cells were treated with C15 for 4 hours then analyzed for SMAD4 monoubiquitination by western blot. F. Quantitation of blots in A. (N=3). See also FIG. 40.
as §2
(§4) Transfected cells were harvested 1.5 days post transfection. […] Typically clarified lysate was analyzed.

[6] = test system: USP9x, USP19, USP7/8, USP28/15; assay: HA-Ub-VS activity profiling in cell lysates, USPs; type: biochemical, human; conditions: HEK293T or Cos-1 lysate, compounds numbered as in FIG. 3
Protocol: (§5) HA-ubiquitin vinylsulfone (HA-Ub-VS) irreversibly labels DUBs by modifying the catalytic cysteine residue Inhibition of the DUB prevents HA-Ub-VS labeling and the band is. […] The interaction with UCHL1/3 is reversible.
(§6) Lysate labeling assay on untransfected cells (1.5 mg/mL) was run with the stated concentration of inhibitor (or 1% DMSO control) for between 19-60 mins. After this time HA-Ub-VS (1.5-0.7 μM) was added and incubated for 19 mins. After this time reaction mixture (9 μL) was removed and quenched in 2× (final concentration) reducing loading buffer. For recovery experiments, a lysate of 6 mg/mL was treated with saturating compound C14 (250 μM) and incubated for 40 mins. Afterward, the lysate was diluted to 0.6 mg/mL (final concentration of inhibitor 25 μM) in lysis buffer (final volume 100 μL), then HA-Ub-VS was added. Aliquots (15 μL) were removed at the stated time (5-119 mins) and immediately quenched in 2× (final concentration) reducing loading buffer. For all HA-Ub-VS experiments samples in loading buffer were heated only to 37° C. prior to loading on a gel. This assay is highly susceptible to concentration of lysate and HA-Ub-VS. Cell experiments were carried out as above with some modifications. For Cos-1 and MCF-7 cells, after trypsinization, media with compound was added to give a final concentration of compound equal to that used in the assay. Cell pellets were lysed on an ice/salt bath with a temperature of −5° C. and lysate was centrifuged for only 5 mins.
(§7) HA-Ub-VS is an irreversible inhibitor of DUBs that is widely used in activity profiling. If the DUB inhibitors react to form a thiocarbonylated enzyme as proposed (FIG. 29B), then HA-Ub-VS labeling will be blocked. Treatment of HEK 293T lysates with HA-Ub-VS produced the characteristic pattern of protein bands at 250, 150-100, 45, 38 and 36 kDa, generally ascribed to USP9x (292 kDa), USP19 (146 kDa), USP7/8 (128 and 127 kDa, respectively), USP28/15 (122 and 112 kDa, respectively), UCH-L5 (38 kDa), UCH-L3 (26 kDa) and UCH-L1 (25 kDa) as depicted in FIG. 31.
(§8) The effect of diphenylcarbonates on HA-Ub-VS labeling was assessed to investigate the selectivity of DUB inhibition. Lysates were preincubated with diphenyl carbonates (75 μM), then treated with HA-Ub-VS (FIG. 31A). […] These C17 and C22-sensitive DUBs are most likely USP9x, USP19, USP7/8 and UCHL5, based on molecular weight (FIGS. 31B and 38). The identity of USP7 was confirmed by immunoblotting (FIG. 38F). […] Similar behavior was observed on Cos-1 cell lysates (FIG. 38B).

[7] = test system: caspases or the proteasome; assay: effect on caspases or proteasome (PARP cleavage), Example 5; type: cell-based; conditions: 100 μM
Protocol: (§9) Cells treated with 4 (100 μM; as defined in FIG. 3) show PARP cleavage that indicates caspases are active. The fluorescence of G76V ubiquitin-GFP fusion protein increases in the presence of inhibitor 4 (as defined in FIG. 3), as expected if degradation […] due to inhibition of DUBs. In contrast, GFP fluorescence […] when the proteasome is inhibited by bortezomib.

[8] = test system: USP7; assay: MDM2 and P53 levels in treated cells, Example 6; type: cell-based; conditions: compound numbered as in FIG. 3
Protocol: P53 is a tumor suppressor that is rapidly degraded in tumor cells due to ubiquitination by MDM2. In turn, MDM2 is degraded by the ubiquitin/proteasome system. USP7 removes ubiquitin from MDM2, stabilizing the protein, and thereby causing degradation of P53. […] This behavior is observed when cells are treated with 4 (as defined in FIG. 3). Doxorubicin (Doxo) serves as a positive control.

[9] = test system: UCH-L5, UCH-L3, UCH-L1; assay: HA-Ub-VS activity profiling in cell lysates, UCH-Ls; type: biochemical, human; conditions: HEK293T or Cos-1 lysate, compounds numbered as in FIG. 3
Protocol: as §5, §6, §7, §8

[10] = test system: SMAD4; assay: SMAD4 monoubiquitination in K562 cells by western blot; type: cell-based, human
Protocol: as §3, §4

[11] = test system: MCF7 cells; assay: accumulation of K48- and K63-linked ubiquitin in MCF7 cells; type: cell-based, human; conditions: 100 μM
Protocol: FIG. 41 depicts data showing that compound C17 and C15 increase P53 expression and upregulate K48-linked Ub in MCF7 cells. A. MCF7 cells were treated with C17 (50 μM) for 48 h, dosed every 24 h and samples were analyzed for K48-linked ubiquitin. Note that samples were not sonicated, so only soluble HMW-Ub is recovered. B. A similar experiment to A but samples were analyzed for p53. C. Quantitation of blots in B. Each point has a P<0.001 for an increase relative to the DMSO vehicle (N=2). D. MCF7 cells were treated with C15 (100 μM) dosing every 2 h. The accumulation of K48-linked ubiquitin was assayed by SDS-PAGE and by western blot. E. MCF7 cells were treated as in D but the accumulation of K63-linked ubiquitin was assayed. F. Cos-1 cells were treated with C15 for 2 hours then analyzed for K48-linked ubiquitin by western blot. G. Similar experiment to F, but K63-linked ubiquitin was assayed. H. Quantitation of blots in G (N=3).
Similar results were obtained in Cos-1, CHO and HEK293T.
as §4

[12] = test system: G76V ubiquitin-GFP fusion protein; assay: G76V ubiquitin-GFP fusion protein fluorescence, Example 5; type: cell-based; conditions: Example 5, FIG. 9 bottom panel
Protocol: as §9

[13] = molecular target: cathepsin C (Homo sapiens, UniProt P53634); assay: cathepsin C inhibition; type: biochemical; conditions: compounds numbered as in FIG. 5
Chain of cathepsin C (P53634 25-463, species assumed): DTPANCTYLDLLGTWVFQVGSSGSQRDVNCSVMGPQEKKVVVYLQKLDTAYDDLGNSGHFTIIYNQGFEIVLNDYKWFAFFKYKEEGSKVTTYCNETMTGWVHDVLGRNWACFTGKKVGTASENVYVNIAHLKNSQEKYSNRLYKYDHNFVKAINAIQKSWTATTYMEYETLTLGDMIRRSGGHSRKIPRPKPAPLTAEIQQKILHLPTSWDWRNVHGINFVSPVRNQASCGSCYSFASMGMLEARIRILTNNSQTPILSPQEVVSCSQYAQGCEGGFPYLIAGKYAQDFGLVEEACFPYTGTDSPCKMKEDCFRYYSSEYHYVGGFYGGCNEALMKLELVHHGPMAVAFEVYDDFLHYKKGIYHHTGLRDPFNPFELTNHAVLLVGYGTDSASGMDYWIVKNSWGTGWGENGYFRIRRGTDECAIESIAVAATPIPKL

T1 sequence (Q93008 whole entry): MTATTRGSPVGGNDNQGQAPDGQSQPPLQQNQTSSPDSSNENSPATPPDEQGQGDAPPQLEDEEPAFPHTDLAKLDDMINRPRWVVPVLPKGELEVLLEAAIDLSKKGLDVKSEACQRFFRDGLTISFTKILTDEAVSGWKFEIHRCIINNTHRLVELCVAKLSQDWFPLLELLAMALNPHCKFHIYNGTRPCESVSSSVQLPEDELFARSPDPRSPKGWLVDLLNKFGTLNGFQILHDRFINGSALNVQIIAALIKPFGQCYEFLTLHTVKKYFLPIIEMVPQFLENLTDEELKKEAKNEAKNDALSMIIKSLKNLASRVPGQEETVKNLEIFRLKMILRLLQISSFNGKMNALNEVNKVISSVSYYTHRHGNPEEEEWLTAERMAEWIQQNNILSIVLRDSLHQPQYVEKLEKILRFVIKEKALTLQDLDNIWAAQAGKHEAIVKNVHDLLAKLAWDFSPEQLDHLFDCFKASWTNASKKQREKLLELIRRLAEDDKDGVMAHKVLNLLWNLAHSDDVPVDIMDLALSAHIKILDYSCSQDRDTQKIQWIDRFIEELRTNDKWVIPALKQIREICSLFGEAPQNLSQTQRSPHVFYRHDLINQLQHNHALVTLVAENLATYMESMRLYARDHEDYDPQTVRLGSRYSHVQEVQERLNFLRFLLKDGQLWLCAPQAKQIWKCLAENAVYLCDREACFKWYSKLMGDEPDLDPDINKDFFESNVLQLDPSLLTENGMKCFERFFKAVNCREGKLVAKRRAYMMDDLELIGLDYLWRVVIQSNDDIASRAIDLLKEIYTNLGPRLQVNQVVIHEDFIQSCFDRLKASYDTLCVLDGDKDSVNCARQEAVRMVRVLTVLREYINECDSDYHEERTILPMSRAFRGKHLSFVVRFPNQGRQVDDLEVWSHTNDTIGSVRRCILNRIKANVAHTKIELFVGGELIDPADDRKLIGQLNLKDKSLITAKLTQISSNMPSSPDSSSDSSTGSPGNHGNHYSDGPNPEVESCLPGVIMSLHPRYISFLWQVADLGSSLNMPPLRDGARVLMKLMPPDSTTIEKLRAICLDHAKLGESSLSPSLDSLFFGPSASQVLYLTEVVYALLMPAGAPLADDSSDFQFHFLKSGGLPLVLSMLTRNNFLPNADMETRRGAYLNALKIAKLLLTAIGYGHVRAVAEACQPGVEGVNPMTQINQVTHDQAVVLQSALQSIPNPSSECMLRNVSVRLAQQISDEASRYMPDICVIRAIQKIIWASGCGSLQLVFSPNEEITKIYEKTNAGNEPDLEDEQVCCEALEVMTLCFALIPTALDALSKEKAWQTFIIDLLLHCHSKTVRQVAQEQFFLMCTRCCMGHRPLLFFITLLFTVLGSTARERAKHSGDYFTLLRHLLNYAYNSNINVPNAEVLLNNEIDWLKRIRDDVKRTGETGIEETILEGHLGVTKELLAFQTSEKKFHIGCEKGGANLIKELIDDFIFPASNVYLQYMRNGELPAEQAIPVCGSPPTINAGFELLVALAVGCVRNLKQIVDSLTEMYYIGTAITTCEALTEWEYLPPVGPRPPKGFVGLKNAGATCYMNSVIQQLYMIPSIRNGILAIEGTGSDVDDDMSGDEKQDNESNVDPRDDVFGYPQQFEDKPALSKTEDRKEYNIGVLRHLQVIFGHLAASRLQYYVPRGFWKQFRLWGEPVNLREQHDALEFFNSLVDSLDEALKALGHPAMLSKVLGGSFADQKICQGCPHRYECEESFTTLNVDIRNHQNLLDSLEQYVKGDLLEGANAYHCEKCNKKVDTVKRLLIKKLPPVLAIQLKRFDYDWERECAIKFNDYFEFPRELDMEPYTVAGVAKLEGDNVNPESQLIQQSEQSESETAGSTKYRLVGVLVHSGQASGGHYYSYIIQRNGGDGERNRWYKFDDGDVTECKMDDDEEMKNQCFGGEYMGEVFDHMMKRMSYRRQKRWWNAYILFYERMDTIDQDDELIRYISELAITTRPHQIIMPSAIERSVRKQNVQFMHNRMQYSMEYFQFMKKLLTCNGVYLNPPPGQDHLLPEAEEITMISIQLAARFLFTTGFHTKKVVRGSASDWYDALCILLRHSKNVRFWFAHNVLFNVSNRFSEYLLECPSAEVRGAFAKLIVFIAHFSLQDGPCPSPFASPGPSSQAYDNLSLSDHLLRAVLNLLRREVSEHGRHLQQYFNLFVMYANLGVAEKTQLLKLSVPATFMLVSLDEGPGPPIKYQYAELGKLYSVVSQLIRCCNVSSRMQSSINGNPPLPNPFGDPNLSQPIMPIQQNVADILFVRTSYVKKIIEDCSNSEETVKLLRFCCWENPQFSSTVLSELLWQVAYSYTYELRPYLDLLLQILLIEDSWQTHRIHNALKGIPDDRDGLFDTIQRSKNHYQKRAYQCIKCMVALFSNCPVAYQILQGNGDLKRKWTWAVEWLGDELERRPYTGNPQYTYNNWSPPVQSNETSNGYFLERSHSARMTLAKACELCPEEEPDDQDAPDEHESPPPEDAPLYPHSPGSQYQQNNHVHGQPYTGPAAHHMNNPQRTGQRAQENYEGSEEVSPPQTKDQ

CC(C)(C)OC(=O)NCc1cccc(N=C=S)c1 [TU50]
selectivity of DUB inhibition ([1]; HA-Ub-VS labeling): selectively inhibits USP9x | EC50 ([1]; compound 40 minutes, then HA-Ub-VS (1.5 μM) 20 minutes): 3 ± 3 µM | EC50 ([2]; BaF3.p210, single dose, 48 h, Alamar Blue, read-out: EC50, viable cells): 8 ± 2 µM | selectivity of proliferation inhibition over cell panel ([2]; panel of 8 cell lines, 48 h and 72 h): selectively inhibits proliferation of cells that depend on USP9x | apoptosis of K562 cells [3]: induce apoptosis of K562 cells | effect on proteasome activity [4]: no effect on proteasome activity | Bcr-Abl kinase level ([5]; TU50 4 hours): cause degradation of Bcr-Abl kinase

Cl.NCc1ccc(OC(=O)Oc2ccc(Br)cc2)cc1 [compound 4]
HA-Ub-VS binding to USP9x and USP7 [6]: prevents binding of HA-Ub-VS to USP9x (290 kDa) and USP7 (150 kDa) selectively | inhibition of caspases or the proteasome [7]: does not inhibit caspases or the proteasome | MDM2 and P53 levels [8]: degradation of MDM2 and the stabilization of P53 | inhibition of UCHL1/3 [9]: At higher concentrations UCHL1/3 (37 kDa) are inhibited | SMAD4 monoubiquitination [10]: increase in SMAD4 monoubiquitination | K48- and K63-linked ubiquitin [11]: elevated K48- and K63-linked ubiquitin | GFP fluorescence of G76V ubiquitin-GFP [12]: increases | BCR/Abl level ([5]; compound numbered as in FIG. 3): decrease in BCR/Abl

CC(C)(C)OC(=O)NCc1ccc(OC(=O)Oc2ccccc2)cc1 [compound 14]
inhibition of cathepsin C [13]: inhibits cathepsin C
